Test systems include DMS 114 small cell lung; KM20L2 colon; P388 leukemia; P388/ADR leukemia; SN12K1 renal; SNB-78 CNS; XF 498 CNS; LXFL 529 NSCLC; RXF-631 renal.
Holding throughout (assay): NCI tumour cell line growth inhibition, 48 h

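Cultured in 96-well plates, cells were exposed to test compound for 48 hours across five concentrations. TGI: concentration producing complete growth inhibition.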

In the case of `CCOC(=O)NC(=O)c1cn(CCN(CCO)C(=O)NCCCCCCNC(=O)N(CCO)CCn2cc(C(=O)NC(=O)OCC)c(=O)[nH]c2=O)c(=O)[nH]c1=O`, the TGI in the assay with DMS 114 small cell lung, with KM20L2 colon, in the assay with P388 leukemia, in the assay with P388/ADR leukemia, with SN12K1 renal and in the assay with SNB-78 CNS was more than 100 µM in each case. Also, the TGI with XF 498 CNS was more than 100 µM.

`CCCC[n+]1ccn(-c2nc3ccccc3n2C)c1`: the TGI in the assay with DMS 114 small cell lung, in the assay with KM20L2 colon, with LXFL 529 NSCLC, in the assay on RXF-631 renal and in the assay on SNB-78 CNS was more than 100 µM throughout.

For `C/C=C(\C)C(=O)OC1C2C(C)=CC(=O)C(O)C2(C)C2C3(O)OCC24C1OC(=O)C(OC(C)=O)C4C(C)C3O` (stereo unspecified), the TGI with DMS 114 small cell lung was 0.0409 µM; in the assay on KM20L2 colon it was 0.795 µM; in the assay on P388/ADR leukemia it was 0.924 µM; with SNB-78 CNS, 0.141 µM; in the assay with XF 498 CNS, 0.0577 µM.

With `O=C([O-])c1ccccc1Nc1ccccc1C(=O)[O-].[OH3+].[Zn+2]`, the TGI with DMS 114 small cell lung was 37.4 µM; in the assay on KM20L2 colon it was more than 100 µM; in the assay on LXFL 529 NSCLC it was 44.7 µM; in the assay on SNB-78 CNS, more than 87.1 µM; with XF 498 CNS, 57.3 µM.

For the compound `N=C1c2ccccc2C(=O)c2c(NCCNCCO)ccc(O)c21`, the TGI in the assay with DMS 114 small cell lung was 15.1 µM; in the assay on KM20L2 colon it was 22 µM; in the assay on LXFL 529 NSCLC, 27.8 µM; with SNB-78 CNS it was more than 60 µM.

The record behind these values is PubChem BioAssay (NCI).
